Here are results for 25 molecules from patent US8124610B2, “Sodium channel inhibitors” (Icagen Inc., priority 2007, dated 2012).

The target of assay [1] is T1, hSCN3A (Homo sapiens, UniProt Q9NY46).
T1 construct: expressed in transfected cells
Kind of assay: Whole-cell patch-clamp electrophysiology (conventional or PatchXpress), HEK cells expressing hSCN3A, estimated IC-50. It is filed as cell-based. As to conditions: read-out: SCN3A EIC-50. Here is the method:
Human Embryonic Kidney (HEK) cells were transfected with hSCN3A or hSCN9A constructs using lipofectamine reagent (Invitrogen), using standard techniques. Cells stably expressing the hSCN3A or hSCN9A constructs were identified by their resistance to G-418 (400 μg/ml). Clones were screened for expression using the whole-cell voltage-clamp technique. HEK cells stably transfected with hSCN3A or hSCN9A were maintained in DMEM medium supplemented with 10% heat-inactivated fetal bovine serum and 400 μg/ml G418 sulfate in an incubator at 37° C. with a humidified atmosphere of 10% CO2. For HTS, cells were harvested from flasks by trypsinization and replated in an appropriate multi-well plate (typically 96 or 384 wells/plate) such that confluence would be achieved within 24 hours of plating. For electrophysiological studies, cells were removed from the culture flask by brief trypsinization and replated at low density onto glass cover slips. Cells were typically used for electrophysiological experiments within 24 to 72 h after plating. Cover slips containing HEK cells expressing hSCN3A or hSCN9A were placed in a bath on the stage of an inverted microscope and perfused (approximately 1 ml/min) with extracellular solution of the following composition: 138 mM NaCl, 2 mM CaCl2, 5.4 mM KCl, 1 mM MgCl2, 10 mM glucose, and 10 mM HEPES, pH 7.4, with NaOH. […] All recordings were made at room temperature (22-24° C.) using AXOPATCH 200B amplifiers and PCLAMP software (Axon Instruments, Burlingame, Calif.) or PatchXpress 7000 hardware and associated software (Axon Instruments, Burlingame, Calif.). hSCN3A or hSCN9A currents in HEK cells were measured using the whole-cell configuration of the patch-clamp technique (Hamill et al., 1981). […] As a result, voltage errors were negligible and no correction was applied. Current records were acquired at 20 to 50 KHz and filtered at 5 to 10 KHz. HEK cells stably transfected with hSCN3A or hSCN9A were viewed under Hoffman contrast optics and placed in front of an array of flow pipes emitting either control or compound-containing extracellular solutions. All compounds were dissolved in dimethyl sulfoxide to make 10 mM stock solutions, which were then diluted into extracellular solution to attain the final concentrations desired. […] The voltage-dependence of inactivation was determined by applying a series of depolarizing prepulses (8 sec long in 10 mV increments) from a negative holding potential. The voltage was then immediately stepped to 0 mV to assess the magnitude of the sodium current. Currents elicited at 0 mV were plotted as a function of prepulse potential to allow estimation of the voltage midpoint of inactivation (V1/2). Cells were then voltage clamped at the empirically determined V1/2. Compounds were tested for their ability to inhibit hSCN3A or hSCN9A sodium channels by activating the channel with a 20 msec voltage step to 0 mV following an 8 second conditioning prepulse to the empirically determined V1-2 (Table B). Compound effect (% inhibition) was determined by difference in current amplitude before and after application of test compounds. […] In some cases electrophysiological assays were conducted with PatchXpress 7000 hardware and associated software (Molecular Devices Corp) (Table B). All assay buffers and solutions were identical to those used in conventional whole-cell voltage clamp experiments described above. hSCN3A or hSCN9A containing cells were grown as above to 50%-80% confluency and harvested by trypsinization. Trypsinized cells were washed and resuspended in extracellular buffer at a concentration of 1×10^6 cells/ml. The onboard liquid handling facility of the PatchXpress was used for dispensing cells and application of test compounds. Determination of the voltage midpoint of inactivation was as described for conventional whole-cell recordings. Cells were then voltage-clamped to the empirically determined V1/2 and current was activated by a 20 msec voltage step to 0 mV.

For assay [2], the target named is T2, hSCN9A (Homo sapiens, UniProt Q15858).
T2 construct: expressed in transfected cells
Kind of assay: Whole-cell patch-clamp electrophysiology (conventional or PatchXpress), HEK cells expressing hSCN9A, estimated IC-50. It is filed as cell-based. As to conditions: read-out: SCN9A EIC-50. An outline of the steps: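 Stably transfected HEK cells recorded by whole-cell voltage clamp (manual or PatchXpress) at 22–24 °C in pH 7.4 HEPES-buffered extracellular solution. Cells held at the empirically determined inactivation V1/2 after an 8 s prepulse, then stepped to 0 mV for 20 ms; % inhibition from current amplitude before vs after compound.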

The mark [3] stands for this setting: Table V, estimated IC-50 from single point electrophysiology, cells clamped at V1/2.
Setting [4] is: estimated IC-50, HEK cells expressing hSCN3A, class symbols or bounds.
The mark [5] stands for this setting: estimated IC-50, HEK cells expressing hSCN9A, class symbols or bounds.

Like-named read-outs stand apart in the source and are kept apart here.

T2 sequence (Q15858 whole entry): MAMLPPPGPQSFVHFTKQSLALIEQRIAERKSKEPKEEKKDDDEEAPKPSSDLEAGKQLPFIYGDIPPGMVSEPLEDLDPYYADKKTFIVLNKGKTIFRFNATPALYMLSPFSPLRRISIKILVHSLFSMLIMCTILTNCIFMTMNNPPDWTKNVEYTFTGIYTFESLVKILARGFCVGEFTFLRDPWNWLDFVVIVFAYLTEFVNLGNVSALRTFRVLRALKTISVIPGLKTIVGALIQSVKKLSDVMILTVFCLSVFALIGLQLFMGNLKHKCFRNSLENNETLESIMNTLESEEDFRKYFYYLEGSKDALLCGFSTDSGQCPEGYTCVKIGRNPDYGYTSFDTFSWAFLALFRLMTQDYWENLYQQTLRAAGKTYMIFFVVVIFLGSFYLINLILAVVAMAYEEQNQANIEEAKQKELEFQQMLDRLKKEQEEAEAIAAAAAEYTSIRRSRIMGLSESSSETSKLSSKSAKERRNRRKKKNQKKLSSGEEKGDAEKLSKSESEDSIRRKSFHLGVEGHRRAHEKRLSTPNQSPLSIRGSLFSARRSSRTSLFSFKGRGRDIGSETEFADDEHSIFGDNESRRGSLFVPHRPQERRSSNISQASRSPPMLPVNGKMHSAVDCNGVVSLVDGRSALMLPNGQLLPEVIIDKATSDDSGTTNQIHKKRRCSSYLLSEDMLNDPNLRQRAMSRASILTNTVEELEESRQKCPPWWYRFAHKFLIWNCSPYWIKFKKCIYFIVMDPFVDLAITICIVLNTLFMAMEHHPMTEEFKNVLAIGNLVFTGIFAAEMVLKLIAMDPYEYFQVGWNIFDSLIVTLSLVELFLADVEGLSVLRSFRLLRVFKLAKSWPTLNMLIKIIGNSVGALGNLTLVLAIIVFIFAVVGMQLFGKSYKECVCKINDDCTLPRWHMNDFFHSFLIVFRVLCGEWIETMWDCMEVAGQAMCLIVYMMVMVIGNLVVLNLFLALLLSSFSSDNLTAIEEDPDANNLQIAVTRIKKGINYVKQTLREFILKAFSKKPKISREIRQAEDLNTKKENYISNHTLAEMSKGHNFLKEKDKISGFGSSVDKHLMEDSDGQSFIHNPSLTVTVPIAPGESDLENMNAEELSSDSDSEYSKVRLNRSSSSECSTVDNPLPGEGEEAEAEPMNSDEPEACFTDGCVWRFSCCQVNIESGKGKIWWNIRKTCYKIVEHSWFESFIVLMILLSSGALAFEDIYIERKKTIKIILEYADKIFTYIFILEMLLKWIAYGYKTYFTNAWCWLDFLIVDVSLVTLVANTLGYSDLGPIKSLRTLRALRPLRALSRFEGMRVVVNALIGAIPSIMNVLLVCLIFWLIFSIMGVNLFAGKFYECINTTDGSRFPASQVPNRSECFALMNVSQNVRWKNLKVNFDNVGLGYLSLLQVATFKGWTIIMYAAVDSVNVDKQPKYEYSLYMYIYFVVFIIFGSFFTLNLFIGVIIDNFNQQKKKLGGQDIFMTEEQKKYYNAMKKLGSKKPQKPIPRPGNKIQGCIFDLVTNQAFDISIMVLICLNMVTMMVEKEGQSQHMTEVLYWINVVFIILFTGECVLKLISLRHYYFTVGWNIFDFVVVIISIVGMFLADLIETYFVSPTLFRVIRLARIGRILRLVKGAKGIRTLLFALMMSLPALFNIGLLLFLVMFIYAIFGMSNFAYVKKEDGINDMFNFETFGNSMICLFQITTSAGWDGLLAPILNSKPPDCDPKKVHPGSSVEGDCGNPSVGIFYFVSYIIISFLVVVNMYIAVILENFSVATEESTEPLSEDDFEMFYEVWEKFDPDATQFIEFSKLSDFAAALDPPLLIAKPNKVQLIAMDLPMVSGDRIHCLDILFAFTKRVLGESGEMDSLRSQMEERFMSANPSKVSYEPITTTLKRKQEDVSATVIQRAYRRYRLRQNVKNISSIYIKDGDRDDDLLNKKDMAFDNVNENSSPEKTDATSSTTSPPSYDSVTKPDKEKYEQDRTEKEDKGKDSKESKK
T1 sequence (Q9NY46 whole entry): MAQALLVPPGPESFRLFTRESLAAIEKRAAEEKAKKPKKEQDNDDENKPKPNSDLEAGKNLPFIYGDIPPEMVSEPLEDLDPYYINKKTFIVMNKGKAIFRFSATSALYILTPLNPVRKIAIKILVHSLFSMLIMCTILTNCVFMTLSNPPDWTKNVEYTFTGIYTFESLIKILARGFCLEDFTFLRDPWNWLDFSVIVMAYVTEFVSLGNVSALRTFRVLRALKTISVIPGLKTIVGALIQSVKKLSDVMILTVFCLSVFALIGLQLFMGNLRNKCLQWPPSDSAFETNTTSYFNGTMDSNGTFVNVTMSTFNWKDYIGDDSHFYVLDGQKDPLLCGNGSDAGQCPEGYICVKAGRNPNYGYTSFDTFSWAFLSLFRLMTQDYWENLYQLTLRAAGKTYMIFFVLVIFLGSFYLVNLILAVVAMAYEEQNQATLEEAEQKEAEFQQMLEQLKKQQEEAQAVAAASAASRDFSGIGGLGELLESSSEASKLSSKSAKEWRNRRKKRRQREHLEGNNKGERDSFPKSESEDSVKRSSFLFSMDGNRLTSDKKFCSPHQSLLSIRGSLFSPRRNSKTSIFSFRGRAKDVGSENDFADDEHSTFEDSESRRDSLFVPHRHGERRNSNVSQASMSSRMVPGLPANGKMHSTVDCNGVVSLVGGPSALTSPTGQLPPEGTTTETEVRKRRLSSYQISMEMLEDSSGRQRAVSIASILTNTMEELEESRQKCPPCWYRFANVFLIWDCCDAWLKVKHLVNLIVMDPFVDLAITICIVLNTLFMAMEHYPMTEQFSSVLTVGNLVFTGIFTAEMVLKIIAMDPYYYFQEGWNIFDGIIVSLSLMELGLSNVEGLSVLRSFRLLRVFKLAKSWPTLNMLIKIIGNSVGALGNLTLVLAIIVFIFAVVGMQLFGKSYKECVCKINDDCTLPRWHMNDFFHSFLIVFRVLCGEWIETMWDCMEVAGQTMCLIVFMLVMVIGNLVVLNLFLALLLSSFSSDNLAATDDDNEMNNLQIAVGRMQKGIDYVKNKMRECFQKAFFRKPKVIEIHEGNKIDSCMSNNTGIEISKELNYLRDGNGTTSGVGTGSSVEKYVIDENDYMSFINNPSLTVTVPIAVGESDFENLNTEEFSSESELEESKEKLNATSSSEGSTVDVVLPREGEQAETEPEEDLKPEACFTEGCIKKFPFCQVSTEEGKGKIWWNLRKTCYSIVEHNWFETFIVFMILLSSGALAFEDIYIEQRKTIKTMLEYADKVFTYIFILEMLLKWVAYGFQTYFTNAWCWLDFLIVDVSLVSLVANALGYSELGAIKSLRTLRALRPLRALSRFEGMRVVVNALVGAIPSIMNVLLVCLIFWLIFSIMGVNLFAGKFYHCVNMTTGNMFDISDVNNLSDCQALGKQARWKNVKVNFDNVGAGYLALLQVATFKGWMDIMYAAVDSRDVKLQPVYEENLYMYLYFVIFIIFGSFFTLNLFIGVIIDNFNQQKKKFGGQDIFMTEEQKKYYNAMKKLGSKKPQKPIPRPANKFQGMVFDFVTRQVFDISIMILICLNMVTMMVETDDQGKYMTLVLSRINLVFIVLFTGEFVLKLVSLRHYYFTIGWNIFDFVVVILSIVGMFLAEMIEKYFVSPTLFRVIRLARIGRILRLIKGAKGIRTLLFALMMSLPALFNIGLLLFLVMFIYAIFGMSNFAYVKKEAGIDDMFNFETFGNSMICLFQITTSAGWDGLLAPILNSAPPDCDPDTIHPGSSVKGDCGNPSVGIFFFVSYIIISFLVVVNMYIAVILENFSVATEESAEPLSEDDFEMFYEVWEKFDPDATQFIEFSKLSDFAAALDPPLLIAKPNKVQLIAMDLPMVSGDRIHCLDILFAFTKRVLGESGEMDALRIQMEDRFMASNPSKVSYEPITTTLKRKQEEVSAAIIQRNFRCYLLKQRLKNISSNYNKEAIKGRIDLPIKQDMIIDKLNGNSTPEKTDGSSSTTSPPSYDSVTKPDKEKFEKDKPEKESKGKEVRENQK

Take `O=S(=O)(Nc1nccs1)c1ccc(Nc2nc(Cc3ccc(Cl)cc3)cs2)cc1F` [Compound 1, 4-[4-(4-Chloro-benzyl)-thiazol-2-ylamino]-2-fluoro-N-thiazol-2-yl-benzenesulfonamide]: the IC50 in assay [1] (setting [3]) and in assay [2] (setting [3]) was less than 2000 nM each time.

Turning to `O=S(=O)(Nc1nccs1)c1ccc(Nc2nc(C(c3ccccc3)c3ccccc3)cs2)cc1` [Compound 2, 4-(4-Benzhydrylthiazol-2-ylamino)-N-(thiazol-2-yl)benzenesulfonamide], the IC50 in assay [1] (setting [3]) is less than 2000 nM; in assay [2] (setting [3]), 2000 to 10000 nM.

In the case of `COc1ccc(Cc2csc(Nc3ccc(S(=O)(=O)Nc4nccs4)c(F)c3)n2)cc1` [Compound 3, 2-Fluoro-4-[4-(4-methoxy-benzyl)-thiazol-2-ylamino]-N-thiazol-2-yl-benzenesulfonamide], the IC50 in assay [1] (setting [3]) is less than 2000 nM; in assay [2] (setting [3]), greater than 10000 nM.

Regarding `CS(=O)(=O)c1ccc(Cc2csc(Nc3ccc(S(=O)(=O)Nc4nccs4)c(F)c3)n2)cc1` [Compound 4, 2-Fluoro-4-[4-(4-methanesulfonyl-benzyl)-thiazol-2-ylamino]-N-thiazol-2-yl-benzenesulfonamide], the IC50 is less than 2000 nM in assay [1] (setting [3]) and 2000 to 10000 nM in assay [2] (setting [3]). On to `N#Cc1ccc(Cc2csc(Nc3ccc(S(=O)(=O)Nc4nccs4)c(F)c3)n2)cc1` [Compound 5, 4-[4-(4-Cyano-benzyl)-thiazol-2-ylamino]-2-fluoro-N-thiazol-2-yl-benzenesulfonamide], for which the IC50 is less than 2000 nM in assay [1] (setting [3]) and 2000 to 10000 nM in assay [2] (setting [3]). For `CN(c1ccc(S(=O)(=O)Nc2nccs2)c(F)c1)c1nc(Cc2ccc(Cl)cc2)cs1` [Compound 6, 4-[4-(4-Chloro-benzyl)-thiazol-2-yl]-methyl-amino-2-fluoro-N-thiazol-2-yl-benzenesulfonamide], the IC50 in assay [1] (setting [3]) and in assay [2] (setting [3]) was 2000 to 10000 nM each time. As for `CC(C)(C)c1csc(Nc2ccc(S(=O)(=O)Nc3nccs3)c(F)c2)n1` [Compound 7, 4-(4-Tert-butyl-thiazol-2-ylamino)-2-fluoro-N-thiazol-2-yl-benzenesulfonamide], the IC50 was less than 2000 nM in assay [1] (setting [3]) and 2000 to 10000 nM in assay [2] (setting [3]). With `Cc1nc(Nc2ccc(S(=O)(=O)Nc3nccs3)cc2)sc1C(C)(C)C` [Compound 8, 4-(5-Tert-butyl-4-methylthiazol-2-ylamino)-N-(thiazol-2-yl)benzenesulfonamide], the IC50 in assay [1] (setting [3]) and in assay [2] (setting [3]) was less than 2000 nM in each case. Take `CC(=O)c1sc(Nc2ccc(S(=O)(=O)Nc3nccs3)c(F)c2)nc1C` [Compound 9, 4-(5-Acetyl-4-methyl-thiazol-2-ylamino)-2-fluoro-N-thiazol-2-yl-benzenesulfonamide]: the IC50 in assay [1] (setting [3]) and in assay [2] (setting [3]) was 2000 to 10000 nM throughout. Take `CC(C)(C)c1csc(Nc2ccc(S(=O)(=O)Nc3nccs3)c(Cl)c2)n1` [Compound 10, 4-(4-Tert-butyl-thiazol-2-ylamino)-2-chloro-N-thiazol-2-yl-benzenesulfonamide]: the results for the IC50 in assay [1] (setting [3]) and in assay [2] (setting [3]) were less than 2000 nM and 2000 to 10000 nM, respectively.

In the case of `CC(C)(C)c1csc(Nc2ccc(S(=O)(=O)Nc3nccs3)c(OC(F)(F)F)c2)n1` [Compound 11, 4-(4-tert-Butyl-thiazol-2-ylamino)-N-thiazol-2-yl-2-trifluoromethoxy-benzenesulfonamide], the IC50 in assay [1] (setting [3]) and in assay [2] (setting [3]) was 2000 to 10000 nM each time. With `CC(C)(C)c1csc(Nc2ccc(S(=O)(=O)Nc3nccs3)c3ccccc23)n1` [Compound 12, 4-(4-tert-Butyl-thiazol-2-ylamino)-naphthalene-1-sulfonic acid thiazol-2-ylamide], the IC50 in assay [1] (setting [3]) was less than 2000 nM; in assay [2] (setting [3]), 2000 to 10000 nM. Take `Cc1nc(Nc2ccc(S(=O)(=O)Nc3nccs3)c(F)c2)sc1C(C)(C)C` [Compound 13, 4-(5-tert-butyl-4-methylthiazol-2-ylamino)-2-fluoro-N-(thiazol-2-yl)benzenesulfonamide]: the IC50 in assay [1] (setting [3]) and in assay [2] (setting [3]) was less than 2000 nM in each case.

On to `O=S(=O)(Nc1nccs1)c1ccc(Nc2nc(CCCCl)cs2)cc1` [Compound 59, 4-(4-(3-chloropropyl)thiazol-2-ylamino)-N-(thiazol-2-yl)benzenesulfonamide], for which the IC50 in assay [1] (setting [4]) is less than 2000 nM.

For the molecule `COc1ccnc(Nc2ccc(S(=O)(=O)Nc3cc(C)on3)cc2)n1` [Compound 86, 4-(4-methoxypyrimidin-2-ylamino)-N-(5-methylisoxazol-3-yl)benzenesulfonamide], the IC50 in assay [1] (setting [4]) was greater than 1000 nM. As for `Cc1cc(NS(=O)(=O)c2ccc(Nc3nccc(OCc4ccc(C(F)(F)F)cc4)n3)cc2)no1` [Compound 87, N-(5-methylisoxazol-3-yl)-4-(4-(4-(trifluoromethyl)benzyloxy)pyrimidin-2-ylamino)benzenesulfonamide], the IC50 in assay [1] (setting [4]) was greater than 1000 nM.

With `Cc1cc(NS(=O)(=O)c2ccc(Nc3ccnc(OCc4ccc(C(F)(F)F)cc4)n3)cc2)no1` [Compound 88, N-(5-methylisoxazol-3-yl)-4-(2-(4-(trifluoromethyl)benzyloxy)pyrimidin-4-ylamino)benzenesulfonamide], in assay [1] (setting [4]), the IC50 was 2000 to 10000 nM. As to `Cc1cc(Nc2ccc(S(=O)(=O)Nc3nccs3)c(OC(F)(F)F)c2)n(-c2ccccc2)n1` [Compound 270, 4-(3-methyl-1-phenyl-1H-pyrazol-5-ylamino)-N-(thiazol-2-yl)-2-(trifluoromethoxy)benzenesulfonamide], in assay [2] (setting [5]), the IC50 was greater than 1000 nM.

Turning to `Cc1cc(Nc2ccn(Cc3ccc(Cl)cc3)n2)ccc1S(=O)(=O)Nc1nccs1` [Compound 271, 4-(1-(4-chlorobenzyl)-1H-pyrazol-3-ylamino)-2-methyl-N-(thiazol-2-yl)benzenesulfonamide], the IC50 in assay [2] (setting [5]) is 2000 to 10000 nM. Take `Cc1cc(Nc2ccc(S(=O)(=O)Nc3nccs3)c(C(F)(F)F)c2)n(-c2ccccc2)n1` [Compound 272, 4-(3-methyl-1-phenyl-1H-pyrazol-5-ylamino)-N-(thiazol-2-yl)-2-(trifluoromethyl)benzenesulfonamide]: the IC50 in assay [2] (setting [5]) is greater than 1000 nM. The same measure, in the same setting: the figure for `N#Cc1cc(S(=O)(=O)Nc2ncns2)ccc1Nc1nnc(-c2ccccc2)c(O)n1` [Compound 273, 3-cyano-4-(5-hydroxy-6-phenyl-1,2,4-triazin-3-ylamino)-N-(1,2,4-thiadiazol-5-yl)benzenesulfonamide] is greater than 1000 nM; for `O=S(=O)(Nc1nccs1)c1ccc2c(cnn2Cc2ccc(OC(F)(F)F)cc2)c1` [Compound 274, N-(thiazol-2-yl)-1-(4-(trifluoromethoxy)benzyl)-1H-indazole-5-sulfonamide] it is less than 2000 nM. `O=S(=O)(Nc1nccs1)c1ccc2nn(Cc3ccc(OC(F)(F)F)cc3)cc2c1` [Compound 275, N-(thiazol-2-yl)-2-(4-(trifluoromethoxy)benzyl)-2H-indazole-5-sulfonamide]: the IC50 in assay [2] (setting [5]) was 2000 to 10000 nM.

With `O=S(=O)(Nc1nccs1)c1ccc2c(cnn2CCCCc2ccccc2)c1` [Compound 278, 1-(4-phenylbutyl)-N-(thiazol-2-yl)-1H-indazole-5-sulfonamide], in assay [2] (setting [5]), the IC50 is less than 2000 nM.

Regarding `O=S(=O)(Nc1nccs1)c1ccc2nn(CCCCc3ccccc3)cc2c1` [Compound 279, 2-(4-phenylbutyl)-N-(thiazol-2-yl)-2H-indazole-5-sulfonamide], in assay [2] (setting [5]), the IC50 was 2000 to 10000 nM.
